Each structure is given as a SMILES string. Counter-ions that a name gives are not always drawn.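 Compound exposure: 48 hours, 5 concentrations, 96-well plates. GI50 marks 50% less growth.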 The source made the active and inactive calls. Cut-off read from the data, not from the text of the source: active = GI50 up to about 1.1 µM and inactive = higher.

The values that follow come from ChEMBL document CHEMBL1201862, “PubChem BioAssay data set” (2004).

Common to all, as to assay: NCI anticancer screen, dose series, 48 h
Assay [1] has as its system A498.
Assay [2] concerns A549.
For assay [3], the system named is CCRF-CEM.
Assay [4] deals with HCT-116.
Assay [5] has as its system HL-60.
The test system of assay [6] is HOP-62.
The subject of assay [7] is K562.
The test system of assay [8] is KM12.
The subject of assay [9] is MDA-N.
The subject of assay [10] is NCI-H23.
Assay [11] concerns OVCAR-3.
In assay [12] the test system is OVCAR-5.
Assay [13] relates to RPMI-8226.
Assay [14] has as its system RXF 393.
Assay [15] concerns SK-MEL-28.
Assay [16] has as its system SK-OV-3.
The subject of assay [17] is SR.
Assay [18] deals with SW-620.
Assay [19] deals with UACC-257.
The test system of assay [20] is SF-295.

Consider `Cc1cc(N)ccc1C=O`, for which the GI50 in assay [1], in assay [2], in assay [3], in assay [4], in [5] and in assay [6] was > 100 µM (inactive) in each case. Further, the GI50 in assay [7], in assay [8], in [9], in assay [10], in [11] and in assay [12] was > 100 µM (inactive) each time. The GI50 in assay [13], in [14], in [15], in [16], in assay [17] and in assay [18] was > 100 µM (inactive) throughout. Further, the GI50 in assay [19] is > 100 µM (inactive).
With `O=C1/C(=C/c2ccccc2[N+](=O)[O-])N=C(c2ccccc2)N1c1nc2ccccc2s1`, the GI50 in assay [1] was 28.1 µM (inactive); in [2], 34.2 µM (inactive); in assay [3], < 0.01 µM (active); in assay [4] it was 17.9 µM (inactive); in assay [5] it was 26.1 µM (inactive); in assay [6], 27.1 µM (inactive). Moreover, the GI50 was 15 µM (inactive) in assay [7]; 17.9 µM (inactive) in [8]; 26.1 µM (inactive) in assay [9]; 17.4 µM (inactive) in assay [10]; 21.1 µM (inactive) in [11]; 73.6 µM (inactive) in assay [12]. Besides, the GI50 in assay [13] was 9.82 µM (inactive); in assay [14], 16.9 µM (inactive); in assay [20], 40.2 µM (inactive); in assay [15], 31.3 µM (inactive); in assay [17], 12.9 µM (inactive); in assay [18], 34.4 µM (inactive). Further, the GI50 in [19] was 65 µM (inactive).
On to `CSc1c(C(=O)Nc2ccccc2)c(N)n(N)c(=O)c1C#N`, for which the GI50 in assay [1] is 30.5 µM (inactive); in assay [2], > 100 µM (inactive); in [3], > 100 µM (inactive); in assay [4], > 100 µM (inactive); in assay [5], > 100 µM (inactive); in assay [7], > 100 µM (inactive). The GI50 in [8], in [9], in assay [10], in assay [11], in [12] and in assay [13] was > 100 µM (inactive) in each case. Moreover, the GI50 in [14], in [15], in assay [16], in assay [17], in assay [18] and in assay [19] was > 100 µM (inactive) each time.
On to `CCN(CC)c1ccc2cc(C(=O)Nc3ccc(C)cc3)c(=N)oc2c1`, for which the GI50 in [1], in assay [2], in assay [3], in assay [4], in assay [5] and in assay [6] was > 100 µM (inactive) each time. The GI50 in assay [7], in assay [8], in assay [9], in [10], in [11] and in [12] was > 100 µM (inactive) in each case. Also, the GI50 in assay [13], in assay [14], in assay [15], in assay [16], in assay [17] and in [18] was > 100 µM (inactive) throughout. In addition, the GI50 in assay [19] was > 100 µM (inactive).
For the compound `NCCCNCCCCNCCCN` [SPERMINE TETRAHYDROCHLORIDE], the GI50 in [1] is > 100 µM (inactive); in assay [2], > 100 µM (inactive); in assay [3], 3.67 µM (inactive); in [4], 2.73 µM (inactive); in assay [5], 4.26 µM (inactive); in assay [6] it was > 100 µM (inactive). The GI50 was 2.33 µM (inactive) in [7]; > 100 µM (inactive) in [8]; 15.2 µM (inactive) in [9]; 67 µM (inactive) in [10]; > 100 µM (inactive) in [12]; 0.284 µM (active) in [13]. Also, the GI50 was 14.1 µM (inactive) in assay [14]; > 100 µM (inactive) in [20]; > 38.7 µM (inactive) in assay [16]; 3.74 µM (inactive) in [17]; 3.66 µM (inactive) in [18]; > 71.1 µM (inactive) in [19].
As to `CCC1C(=O)C(O)[C@H]2[C@@H]3C(O)CC4=CC(=O)CC[C@]4(C)[C@H]3CC[C@]12C` (stereo partly specified), the GI50 in assay [1], in assay [2], in [3], in assay [4], in assay [5] and in assay [6] was > 50 µM (inactive) in each case. In addition, the GI50 in assay [7], in assay [8], in assay [9], in [10], in [11] and in assay [12] was > 50 µM (inactive) throughout. The GI50 in [13], in [20], in assay [15], in assay [16], in assay [17] and in [18] was > 50 µM (inactive) throughout. Further, in [19], the GI50 was > 50 µM (inactive).
In the case of `O=c1[nH][nH]c(=O)n1/N=C/c1ccccc1`, the GI50 in assay [1], in assay [2], in [3], in assay [4], in assay [5] and in [6] was > 100 µM (inactive) throughout. The GI50 in [7], in assay [8], in assay [9], in assay [10], in assay [11] and in [12] was > 100 µM (inactive) throughout. In addition, the GI50 in assay [13], in assay [20], in assay [15], in [16], in [17] and in [18] was > 100 µM (inactive) each time. Moreover, in assay [19], the GI50 was > 100 µM (inactive).
As to `Cn1c(=O)[nH]c2sc3c(c2c1=N)CCCC3`, the GI50 was > 75 µM (inactive) in [1]; > 75 µM (inactive) in [4]; 32.7 µM (inactive) in assay [5]; > 75 µM (inactive) in [6]; > 75 µM (inactive) in [7]; > 75 µM (inactive) in assay [8]. In addition, the GI50 in [9] was > 75 µM (inactive); in assay [10], > 75 µM (inactive); in [11], > 75 µM (inactive); in assay [12], > 75 µM (inactive); in assay [13] it was 50.1 µM (inactive); in [14] it was > 75 µM (inactive). Further, the GI50 in [20], in assay [15], in assay [17], in [18] and in [19] was > 75 µM (inactive) throughout.
In the case of `CC[C@]12C=CCN3CC[C@@]4(c5cc(N=O)c(OC)cc5N(C)[C@H]4[C@@](O)(C(=O)NC(Cc4c[nH]c5ccccc45)C(=O)OC)[C@@H]1O)[C@@H]32` (stereo partly specified), the GI50 was 32.4 µM (inactive) in [1]; 29.4 µM (inactive) in assay [2]; 3.27 µM (inactive) in assay [3]; 12.9 µM (inactive) in assay [4]; 2.87 µM (inactive) in [5]; 18.2 µM (inactive) in [6]. Moreover, the GI50 in assay [7] is 3.92 µM (inactive); in [8] it was 12.5 µM (inactive); in [9] it was 20.3 µM (inactive); in assay [10], 17.7 µM (inactive); in assay [11] it was 14.4 µM (inactive); in [12], 19.5 µM (inactive). For the same compound, the GI50 in assay [14] was 12.6 µM (inactive); in [20], 17.1 µM (inactive); in assay [15], 31.3 µM (inactive); in [16] it was 20.2 µM (inactive); in assay [17] it was 1.22 µM (inactive); in assay [18], 6.93 µM (inactive). The GI50 in assay [19] was 15.1 µM (inactive).
With `CCCCCCCCCCCC[C@@H](O)[C@H]1CC[C@H]([C@H]2CC[C@H]([C@H](O)CC[C@H](O)CCCCCCCC3=C[C@H](C)OC3=O)O2)O1`, the GI50 in assay [1] was 2.52 µM (inactive); in assay [2], 1.35 µM (inactive); in assay [3], 1.09 µM (active); in assay [4], 1.23 µM (inactive); in assay [5], 1.26 µM (inactive); in [6], 1.57 µM (inactive). Moreover, the GI50 in assay [7] is 1.05 µM (active); in assay [8] it was 1.44 µM (inactive); in assay [9], 1.9 µM (inactive); in assay [10], 0.0201 µM (active); in [11], 1.58 µM (inactive); in assay [12], 1.69 µM (inactive). The GI50 in [13] was 1.2 µM (inactive); in assay [14] it was 2.12 µM (inactive); in assay [20] it was 1.26 µM (inactive); in assay [15] it was 1.63 µM (inactive); in [17] it was 2.03 µM (inactive); in assay [18] it was 1.94 µM (inactive). Further, the GI50 in assay [19] is 0.136 µM (active).
